Experimental data from patent US6638972B2, “Chroman and benzofuran derivatives as 5-hydroxytryptamine-6 ligands” (Wyeth, priority 2001, dated 2003).

Columns and labels:
[1] = target: T1, human cloned 5-HT6 receptors (Homo sapiens, UniProt P50406); assay: 5-HT6 binding affinity ([3H]-LSD displacement, membranes of Hela cells expressing human cloned 5-HT6 receptors); settings: [3H]-LSD 3.0 nM, Hela cell membranes, 120 min at room temperature; read-out: 5-HT6 Binding Ki
T1 construct: expressed in transfected cells; host or cells: HeLa cells (membrane preparation)
T1 sequence (P50406 whole entry): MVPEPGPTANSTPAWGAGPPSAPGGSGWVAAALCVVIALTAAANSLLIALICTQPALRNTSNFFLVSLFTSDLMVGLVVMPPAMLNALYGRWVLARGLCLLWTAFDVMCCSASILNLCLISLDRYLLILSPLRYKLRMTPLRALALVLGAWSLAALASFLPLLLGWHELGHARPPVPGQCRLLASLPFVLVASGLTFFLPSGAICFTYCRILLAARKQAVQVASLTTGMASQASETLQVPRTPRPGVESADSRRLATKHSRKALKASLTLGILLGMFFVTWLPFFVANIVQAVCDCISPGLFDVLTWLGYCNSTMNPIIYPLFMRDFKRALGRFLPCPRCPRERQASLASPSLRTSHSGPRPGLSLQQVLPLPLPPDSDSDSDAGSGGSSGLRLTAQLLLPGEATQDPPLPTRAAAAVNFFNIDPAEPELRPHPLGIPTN
Method: The affinity of test compounds for the serotonin 5-T6 receptor is evaluated in the following manner. Cultured Hela cells expressing human cloned 5-HT6 receptors are harvested and centrifuged at low speed (1,000×g) for 10.0 min to remove the culture media. The harvested cells are suspended in half volume of fresh physiological phosphate buffered saline solution and recentrifuged at the same speed. This operation is repeated. The collected cells are then homogenized in ten volumes of 50 mM Tris.HCl (pH 7.4) and 0.5 mM EDTA. The homogenate is centrifuged at 40,000×g for 30.0 min and the precipitate is collected. The obtained pellet is resuspended in 10 volumes of Tris.HCl buffer and recentrifuged at the same speed. The final pellet is suspended in a small volume of Tris.HCl buffer and the tissue protein content is determined in aliquots of 10-25 μl volumes. Bovine Serum Albumin is used as the standard in the protein determination according to the method described in Lowry et al., J. Biol. Chem., 193:265 (1951). The volume of the suspended cell membranes is adjusted to give a tissue protein concentration of 1.0 mg/ml of suspension. The prepared membrane suspension (10 times concentrated) is aliquoted in 1.0 ml volumes and stored at −70° C. until used in subsequent binding experiments.
Binding experiments are performed in a 96 well microtiter plate format, in a total volume of 200 μl. […] The test compounds are added in 20.0 μl volume.
The reaction is allowed to proceed in the dark for 120 min at room temperature, at which time, the bound ligand-receptor complex is filtered off on a 96 well unifilter with a Packard Filtermate® 196 Harvester. The bound complex caught on the filter disk is allowed to air dry and the radioactivity is measured in a Packard TopCount® equipped with six photomultiplier detectors, after the addition of 40.0 μl Microscint®-20 scintillant to each shallow well. The unifilter plate is heat-sealed and counted in a PackardTopCount® with a tritium efficiency of 31.0%.
Binding in the presence of varying concentrations of test compound is expressed as a percentage of specific binding in the absence of test compound. The results are plotted as log % bound versus log concentration of test compound. […] A linear regression line of data points is plotted, from which the IC50 value is determined and the Ki value is determined based upon the following equation: […]
where L is the concentration of the radioactive ligand used and KD is the dissociation constant of the ligand for the receptor, both expressed in nM.

Ki [1]: 69 nM
melting point: 82 to 87 °C
Compound: O=[N+]([O-])c1cccc(OCCCNCC2CCc3ccc(OCc4ccccc4)cc3O2)c1 (centres unmarked) [Example 33, (7-benzyloxy-chroman-2-ylmethyl)-[3-(3-nitro-phenoxy)-propyl]-amine]
